Results from PubChem BioAssay (NCI).
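Following 48 hours of exposure in 96-well plates, responses at five concentrations were used to interpolate endpoints linearly. At the TGI there is no net growth.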

What was measured:
Assay in all cases: NCI anticancer screen, dose series, 48 h
HCT-15 colon = test system: HCT-15 colon
HS 578T breast = test system: HS 578T breast
HT29 colon = test system: HT29 colon
IGROV1 ovarian = test system: IGROV1 ovarian
OVCAR-5 ovarian = test system: OVCAR-5 ovarian
RXF 393 renal = test system: RXF 393 renal
SNB-19 CNS = test system: SNB-19 CNS
UACC-257 melanoma = test system: UACC-257 melanoma
MALME-3M melanoma = test system: MALME-3M melanoma
HL-60(TB) leukemia = test system: HL-60(TB) leukemia

Row | SMILES | TGI (HCT-15 colon) [µM] | TGI (HS 578T breast) [µM] | TGI (HT29 colon) [µM] | TGI (IGROV1 ovarian) [µM] | TGI (OVCAR-5 ovarian) [µM] | TGI (RXF 393 renal) [µM] | TGI (SNB-19 CNS) [µM] | TGI (UACC-257 melanoma) [µM] | TGI (MALME-3M melanoma) [µM] | TGI (HL-60(TB) leukemia) [µM]
1 | CC1CCCC2=C1C(c1ccc(Cl)cc1)n1c(s/c(=C\c3ccc(Cl)cc3)c1=O)=N2 (configuration not stated) | > 100 | > 100 | > 100 | > 100 | > 100 | > 100 | > 100 | > 100 |  | 
2 | CCOc1ccc2c(c1)/C(=C(\C(Cl)=C(Cl)Cl)[N+](=O)[O-])N2 | > 100 | > 100 | > 100 |  | > 100 |  | > 100 | > 100 | > 100 | 
3 | CCC1CC2CN3CCc4c([nH]c5c(-c6c(OC)ccc7c8c([nH]c67)[C@]6(C(=O)OC)CC7CC(CC)C6N(CC8)C7)c(O)ccc45)[C@](C(=O)OC)(C2)C13 (some centres not stated) | 31.4 |  | 18.6 | 31.3 | 33.2 | 26.8 | 35.8 | 47.2 |  | 
4 | c1ccc(C2SCC3=Nc4ccccc4CN32)cc1 (configuration not stated) | > 100 | > 100 | 50.7 |  | > 100 | 38.9 | 57.8 | > 100 |  | 89.9
5 | Cc1cc2[nH]c3c(C#N)c(-c4ccccc4)c(N=Nc4cccc(C(F)(F)F)c4)c(=O)n3c2cc1C | > 100 |  |  | > 100 | > 100 | > 100 | > 100 | > 100 | > 100 | 
6 | O=C(N/N=C1\CCc2ccccc2C1)N/N=C1\CCc2ccccc2C1 | > 10 |  | > 10 |  | > 10 | > 10 | > 10 | > 10 | > 10 | > 10
7 | CC1C(c2ccc3c(c2)OCO3)c2cc3c(cc2OC1N1CCCC1)OCO3 (configuration not stated) | > 100 | 44.5 | > 100 | > 100 | > 100 |  | > 100 | > 100 |  | 
8 | COc1cc(N=NN(C)C)c(C(C)c2c3cc(OC)c(OC)cc3cc[n+]2C)cc1OC (configuration not stated) | > 100 | > 100 | > 100 | > 100 | > 100 | > 100 | > 100 | > 100 | 87.5 | 
9 | CC(=O)c1ccc(Oc2ccc(/C(C)=N\N=C(N)N)cc2)cc1 | 13.2 |  | 3.52 | 18.2 | 17.4 |  | 22.5 | 19 | 8.12 | 
10 | CCP(=O)(CC)C(Cl)(Cl)C(O)C(C)(C)C (configuration not stated) | > 100 | > 100 | > 100 | > 100 | > 100 |  | > 100 | > 100 |  | 
11 | CC(C)(C)[Si](C)(C)OCCCC#CCO | > 100 |  | > 100 | > 100 | > 100 | > 100 | > 100 | > 100 | > 100 | 70.9
12 | C/C(=N\Nc1ccc([N+](=O)[O-])cc1[N+](=O)[O-])c1ccc2ccccc2n1 | > 100 | > 100 | > 100 | > 100 | > 100 | > 100 | 94.4 | > 100 | > 100 | 
13 | COc1ccc(C2SCC(=O)N2c2ccc(-c3ccc(-n4c(-c5ccccc5)nc5ccccc5c4=O)cc3)cc2)cc1 (configuration not stated) | > 100 | > 100 | 30.5 | > 100 | 87.2 |  | > 100 | > 100 | > 100 | > 100
